# Reference: paper PMC8434392, “Harnessing the Anti-Nociceptive Potential of NK2 and NK3 Ligands in the Design of New Multifunctional μ/δ-Opioid Agonist–Neurokinin Antagonist Peptidomimetics” (Molecules, 2021)
# Marks after values point to notes of the source that are not given here.
# Key:
# [1] = target: T1, human recombinant MOR (Homo sapiens, UniProt P35372); test: Calcium mobilization assay, CHO MOR cells with Gαqi5; format: cell-based; conditions: intrinsic activity: Emax of ligand / Emax of dermorphin
# T1 construct: expressed in transfected cells; host or cells: CHO cells (gift from Prof. Girolamo Calo', Ferrara University)
# [2] = target: T2, human recombinant KOR (Homo sapiens, UniProt P41145); test: Calcium mobilization assay, CHO KOR cells with Gαqi5; format: cell-based
# T2 construct: expressed in transfected cells; host or cells: CHO cells (gift from Prof. Girolamo Calo', Ferrara University)
# [3] = target: T3, human recombinant DOR (Homo sapiens, UniProt P41143); set-up: method as in PMID 23007594; conditions: data from reported literature ref 30, cited from earlier work; for DOR α ± SEM: intrinsic activity
# T3 construct: expressed in transfected cells; host or cells: CHO cells (gift from Prof. Girolamo Calo', Ferrara University)
# [4] = target: hNK3; set-up: method as in PMID 17728699; conditions: Figure 1A; cited from earlier work
# [5] = test system: NK3 receptor; set-up: method as in PMID 17728699; conditions: Figure 1A; cited from earlier work
# [6] = test system: NK3 receptor; set-up: method as in PMID 17728699; conditions: Figure 1A; cited from earlier work; remark: listed apart in the source
# [7] = test system: hMOR; set-up: method as in PMID 15094830, PMID 32365707; conditions: Figure 1B; read-out: EC50 (CHO-hMOR); cited from earlier work
# [8] = target: hMOR; set-up: method as in PMID 15094830, PMID 32365707; conditions: Figure 1B; read-out: Ki (CHO-hMOR); cited from earlier work
# T3 sequence (P41143 whole entry): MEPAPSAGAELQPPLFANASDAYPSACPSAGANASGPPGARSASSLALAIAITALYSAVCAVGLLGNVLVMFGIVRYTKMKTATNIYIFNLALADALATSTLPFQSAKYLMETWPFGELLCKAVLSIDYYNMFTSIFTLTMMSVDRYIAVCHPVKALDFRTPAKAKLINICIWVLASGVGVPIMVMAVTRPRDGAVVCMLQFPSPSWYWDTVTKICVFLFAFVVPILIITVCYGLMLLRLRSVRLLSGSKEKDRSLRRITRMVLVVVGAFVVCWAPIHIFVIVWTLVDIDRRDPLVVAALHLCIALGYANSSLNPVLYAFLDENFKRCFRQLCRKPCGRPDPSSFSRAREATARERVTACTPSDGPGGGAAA
# T2 sequence (P41145 whole entry): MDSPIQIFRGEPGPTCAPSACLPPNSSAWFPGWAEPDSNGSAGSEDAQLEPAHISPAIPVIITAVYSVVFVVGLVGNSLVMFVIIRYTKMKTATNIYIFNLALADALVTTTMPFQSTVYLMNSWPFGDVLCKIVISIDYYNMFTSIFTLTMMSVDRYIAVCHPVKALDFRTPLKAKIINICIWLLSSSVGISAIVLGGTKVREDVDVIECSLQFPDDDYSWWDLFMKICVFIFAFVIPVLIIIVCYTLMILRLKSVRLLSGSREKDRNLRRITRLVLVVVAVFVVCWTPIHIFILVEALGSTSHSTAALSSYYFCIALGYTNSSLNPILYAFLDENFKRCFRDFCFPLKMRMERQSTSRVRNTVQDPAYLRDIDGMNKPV
# T1 sequence (P35372 whole entry): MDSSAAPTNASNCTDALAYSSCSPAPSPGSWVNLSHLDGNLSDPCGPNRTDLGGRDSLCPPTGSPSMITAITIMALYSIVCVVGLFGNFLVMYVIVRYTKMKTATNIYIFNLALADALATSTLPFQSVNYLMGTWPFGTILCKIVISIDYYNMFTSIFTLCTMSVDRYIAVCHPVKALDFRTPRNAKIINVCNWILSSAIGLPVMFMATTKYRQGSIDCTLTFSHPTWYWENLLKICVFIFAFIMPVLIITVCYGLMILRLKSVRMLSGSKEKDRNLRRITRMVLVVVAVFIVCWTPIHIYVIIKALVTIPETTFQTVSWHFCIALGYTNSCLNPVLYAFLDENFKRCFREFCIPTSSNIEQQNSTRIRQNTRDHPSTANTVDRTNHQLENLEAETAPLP
compound,measurement,setting,value
"C[C@@H](NC(=O)[C@@H](N)Cc1ccc(O)cc1)C(=O)N[C@@H](Cc1ccccc1)C(=O)NCC(=O)N[C@@H](Cc1ccc(O)cc1)C(=O)N1CCC[C@H]1C(=O)N[C@@H](CO)C(N)=O [dermorphin, reference compound]",MOR α ± SEM,[1],1.00
same,KOR EC50 ± SEM (nM),"[2]; calcium mobilization, CHO KOR Gαqi5, maximum tested concentration 10 µM, crc = concentration-response curve",inactive
same,KOR α ± SEM,[2]; intrinsic activity: Emax of ligand / Emax of dynorphin A,inactive
same,DOR EC50 ± SEM (nM),"[3]; calcium mobilization, chimeric G protein",Inactive ^a
same,DOR α ± SEM,[3],Inactive ^a
CC[C@H](C)[C@H](NC(=O)[C@H](CCCNC(=N)N)NC(=O)[C@H](CCCNC(=N)N)NC(=O)[C@H](CC(C)C)NC(=O)[C@H](Cc1ccccc1)NC(=O)CNC(=O)CNC(=O)[C@@H](N)Cc1ccc(O)cc1)C(=O)N[C@@H](CCCNC(=N)N)C(=O)N1CCC[C@H]1C(=O)N[C@@H](CCCCN)C(=O)N[C@@H](CC(C)C)C(=O)N[C@@H](CCCCN)C(=O)N[C@@H](Cc1c[nH]c2ccccc12)C(=O)N[C@@H](CC(=O)O)C(=O)N[C@@H](CC(N)=O)C(=O)N[C@@H](CCC(N)=O)C(=O)O [dynorphin A],DOR α ± SEM,[3],0.99 ± 0.04 ^a
CC[C@H](NC(=O)c1c(O)c(-c2ccccc2)nc2ccccc12)c1ccccc1 [Talnetant],Ki,[4],2 nM
same,pA2 (Ca2+ mobilisation),[5],8.1
same,pA2 (IP accumulation),[6],7.7
"Cc1cc(O)cc(C)c1C[C@H](N)C(=O)N[C@H](CCCNC(=N)N)C(=O)N[C@@H](Cc1ccccc1)C(=O)N[C@@H](CCCCN)C(N)=O [Dmt-DALDA, H-Dmt-D-Arg-Phe-Lys-NH2]",EC50,[7],0.51 nM
same,Ki,[8],0.23 nM
